In US20220281846A1, “COMPOUNDS AND COMPOSITIONS FOR THE TREATMENT OF RESPIRATORY DISEASES” (THE UNIVERSITY OF MELBOURNE, priority 2018, published 2022):
Where “and” joins values, the source holds several entries; their conditions need not be identical. Identical values can stand only once. Marks after values point to notes of the source that are not given here.

Assay: Mouse pharmacokinetics, IV and oral administration
Type: in vivo
Conditions: male C57BL/6 mice
Protocol: PF670462 (2HCl.0.4 mol. eq. isopropanol) and ZH3-138 (unionised) were administered to male C57BL/6 mice by IV (3 mg/kg) or orally (10 mg/kg). IV administration was achieved by bolus injection into the tail vein of mice using 1 mL syringe with 25G×1″ needle at a volume of 3 mL/kg. Oral administration was achieved by gavage needle at a volume of 3 mL/kg.
Intravenous (IV) and oral formulations were prepared using the same method. On the day of dosing, each of the solid compound was dissolved in DMSO to which an aqueous solution containing 10% Captisol was added. Hydrochloric acid (1 M) was used to modify pH for the formulation of ZH3-138 with the purpose of solubilising the compound (see Section B for the final pH of each formulation). The formulations of each compound were thoroughly vortexed, producing colourless solutions for all three compounds.
The systemic exposure of PF670462 and ZH3-138 was studied in non-fasted male C57BL/6 mice weighing 19.8-26.8 g. Mice had access to food and water ad libitum throughout the pre- and post-dose sampling period.
Compounds were dosed to mice by bolus injection into the lateral tail vein (3 mL/kg) for IV administration and by gavage (3 mL/kg) for oral administration. Following IV and oral administration, blood samples were collected up to 24 h (n=3 mice per time point) with a maximum of three samples from each mouse. Samples were collected via submandibular bleed (approximately 120 μL; conscious sampling). No urine samples were collected as mice were housed in bedded cages.
Blood was collected into polypropylene Eppendorf tubes containing heparin as anticoagulant and stabilisation cocktail (containing Complete® (a protease inhibitor cocktail) and potassium fluoride) to minimise the potential for ex vivo compound degradation in blood/plasma samples.
Once collected, blood samples were centrifuged immediately, supernatant plasma was removed, and stored at −80° C. until analysis by LC-MS.
Plasma samples were quantified against calibration standards prepared by spiking blank mouse plasma (50 μL) with solution standards (10 μL) obtained by diluting a stock solution of test compound (1 mg/mL in DMSO) with 50% acetonitrile in water. Diazepam (10 μL of 5 μg/mL in 50% acetonitrile/water) was added to all plasma calibration standards and samples as an internal standard (IS). The extraction of the test compound and IS from plasma was conducted using protein precipitation with acetonitrile. Protein precipitation was carried out by the addition of acetonitrile followed by vortexing and centrifugation (10,000 rpm) for 3 minutes to obtain supernatant for analysis using the LC-MS conditions described in Table 7.

apparent blood clearance: moderate
apparent blood volume of distribution: moderate
time post-dose for which plasma concentration was measurable (above LLQ) (24 h sampling period): up to 4 h
Plasma Concentration, Mean (IV 2.42 mg/kg, 0.017 h): 15500 nM
Plasma Concentration, Individual (IV 2.42 mg/kg, 0.017 h, 2.42 mg/kg): 18.4 µM and 10.9 µM and 17.3 µM
Plasma Concentration, Mean (IV 2.42 mg/kg, 0.033 h): 8140 nM
Plasma Concentration, Individual (IV 2.42 mg/kg, 0.033 h, 2.42 mg/kg): 8.83 µM and 8.03 µM and 7.57 µM
Plasma Concentration, Mean (IV 2.42 mg/kg, 0.083 h): 6090 nM
Plasma Concentration, Individual (IV 2.42 mg/kg, 0.083 h, 2.42 mg/kg): 5.58 µM and 5.99 µM and 6.70 µM
Plasma Concentration, Mean (IV 2.42 mg/kg, 0.25 h): 2480 nM
Plasma Concentration, Individual (IV 2.42 mg/kg, 0.25 h, 2.42 mg/kg): 2.38 µM and 2.32 µM and 2.75 µM
Plasma Concentration, Mean (IV 2.42 mg/kg, 0.5 h): 851 nM
Plasma Concentration, Individual (IV 2.42 mg/kg, 0.5 h, 2.42 mg/kg): 0.900 µM and 0.566 µM and 1.09 µM
Plasma Concentration, Mean (IV 2.42 mg/kg, 1.0 h): 190 nM
Plasma Concentration, Individual (IV 2.42 mg/kg, 1.0 h, 2.42 mg/kg): 0.193 µM and 0.165 µM and 0.212 µM
Plasma Concentration, Mean (IV 2.42 mg/kg, 2.0 h): 253 nM
Plasma Concentration, Individual (IV 2.42 mg/kg, 2.0 h, 2.42 mg/kg): 0.0263 µM and 0.0207 µM and 0.0290 µM
Plasma Concentration, Mean (IV 2.42 mg/kg, 4.0 h): 2.09 nM
Plasma Concentration, Mean (oral 10.1 mg/kg, 0.25 h): 1250 nM
Plasma Concentration, Individual (oral 10.1 mg/kg, 0.25 h, 10.1 mg/kg): 1.45 µM and 0.873 µM and 1.44 µM
Plasma Concentration, Mean (oral 10.1 mg/kg, 0.50 h): 941 nM
Plasma Concentration, Individual (oral 10.1 mg/kg, 0.50 h, 10.1 mg/kg): 1.95 µM and 0.508 µM and 0.366 µM
Plasma Concentration, Mean (oral 10.1 mg/kg, 1.0 h): 292 nM
Plasma Concentration, Individual (oral 10.1 mg/kg, 1.0 h, 10.1 mg/kg): 0.260 µM and 0.340 µM and 0.277 µM
Plasma Concentration, Mean (oral 10.1 mg/kg, 2.0 h): 103 nM
Plasma Concentration, Individual (oral 10.1 mg/kg, 2.0 h, 10.1 mg/kg): 0.140 µM and 0.0641 µM and 0.104 µM
Plasma Concentration, Mean (oral 10.1 mg/kg, 4.0 h): 16.5 nM
Plasma Concentration, Individual (oral 10.1 mg/kg, 4.0 h, 10.1 mg/kg): 0.0318 µM and 0.0106 µM and 0.00703 µM
apparent half-life (plasma): approximately 0.5 h
SMILES: Nc1nccc(-c2c(-c3ccc(F)cc3)ncn2C2CCCCC2)n1 [PF670462, reference compound]
Plasma Concentration, Individual (IV 2.42 mg/kg, 4.0 h, values only marginally below the LLQ, 2.42 mg/kg): 0.00222 ^a μM and 0.00134 ^a μM and 0.0027 ^a μM
